Results published in patent publication US20260262643A1, “HERBICIDAL BENZOXAZINES” (FMC CORPORATION, priority 2022, published 2026).

Key:
[1] = tested on: barnyardgrass; experiment: Test C preemergence; type: in vivo, Echinochloa crusgalli; conditions: preemergence, 0 to 100 scale (0 no effect, 100 complete control)
Summary of the method: (§1)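 Greenhouse herbicide screen, 10-day duration. Test chemicals in solvent/surfactant blend were sprayed onto soil at sowing (pre) or onto 2–10 cm seedlings at one to two leaves (post); injury scored visually against controls, 0 no effect to 100 complete control.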

[2] = tested on: blackgrass; experiment: Test C preemergence; type: in vivo, Alopecurus myosuroides; conditions: preemergence, 0 to 100 scale (0 no effect, 100 complete control)
Summary of the method: as §1

[3] = tested on: corn; experiment: Test C preemergence; type: in vivo, Zea mays; conditions: preemergence, 0 to 100 scale (0 no effect, 100 complete control)
Summary of the method: as §1

[4] = tested on: green foxtail; experiment: Test C preemergence; type: in vivo, Setaria viridis; conditions: preemergence, 0 to 100 scale (0 no effect, 100 complete control)
Summary of the method: as §1

[5] = tested on: kochia; experiment: Test C preemergence; type: in vivo, Bassia scoparia; conditions: preemergence, 0 to 100 scale (0 no effect, 100 complete control)
Summary of the method: as §1

[6] = tested on: oat, wild; experiment: Test C preemergence; type: in vivo, Avena fatua; conditions: preemergence, 0 to 100 scale (0 no effect, 100 complete control)
Summary of the method: as §1

[7] = tested on: pigweed, palmer; experiment: Test C preemergence; type: in vivo, Amaranthus palmeri; conditions: preemergence, 0 to 100 scale (0 no effect, 100 complete control)
Summary of the method: as §1

[8] = tested on: ragweed; experiment: Test C preemergence; type: in vivo, Ambrosia artemisiifolia; conditions: preemergence, 0 to 100 scale (0 no effect, 100 complete control)
Summary of the method: as §1

[9] = tested on: ryegrass, Italian; experiment: Test C preemergence; type: in vivo, Lolium multiflorum; conditions: preemergence, 0 to 100 scale (0 no effect, 100 complete control)
Summary of the method: as §1

[10] = tested on: soybean; experiment: Test C preemergence; type: in vivo, Glycine max; conditions: preemergence, 0 to 100 scale (0 no effect, 100 complete control)
Summary of the method: as §1

[11] = tested on: wheat; experiment: Test C preemergence; type: in vivo, Triticum aestivum; conditions: preemergence, 0 to 100 scale (0 no effect, 100 complete control)
Summary of the method: as §1

[12] = tested on: barnyardgrass; experiment: Test C postemergence; type: in vivo, Echinochloa crusgalli; conditions: 10 days, 0 to 100 scale (0 no effect, 100 complete control)
Summary of the method: as §1

[13] = tested on: blackgrass; experiment: Test C postemergence; type: in vivo, Alopecurus myosuroides; conditions: 10 days, 0 to 100 scale (0 no effect, 100 complete control)
Summary of the method: as §1

[14] = tested on: corn; experiment: Test C postemergence; type: in vivo, Zea mays; conditions: 10 days, 0 to 100 scale (0 no effect, 100 complete control)
Summary of the method: as §1

[15] = tested on: green foxtail; experiment: Test C postemergence; type: in vivo, Setaria viridis; conditions: 10 days, 0 to 100 scale (0 no effect, 100 complete control)
Summary of the method: as §1

[16] = tested on: kochia; experiment: Test C postemergence; type: in vivo, Bassia scoparia; conditions: 10 days, 0 to 100 scale (0 no effect, 100 complete control)
Summary of the method: as §1

[17] = tested on: oat, wild; experiment: Test C postemergence; type: in vivo, Avena fatua; conditions: 10 days, 0 to 100 scale (0 no effect, 100 complete control)
Summary of the method: as §1

[18] = tested on: pigweed, palmer; experiment: Test C postemergence; type: in vivo, Amaranthus palmeri; conditions: 10 days, 0 to 100 scale (0 no effect, 100 complete control)
Summary of the method: as §1

[19] = tested on: ragweed; experiment: Test C postemergence; type: in vivo, Ambrosia artemisiifolia; conditions: 10 days, 0 to 100 scale (0 no effect, 100 complete control)
Summary of the method: as §1

[20] = tested on: ryegrass, Italian; experiment: Test C postemergence; type: in vivo, Lolium multiflorum; conditions: 10 days, 0 to 100 scale (0 no effect, 100 complete control)
Summary of the method: as §1

[21] = tested on: soybean; experiment: Test C postemergence; type: in vivo, Glycine max; conditions: 10 days, 0 to 100 scale (0 no effect, 100 complete control)
Summary of the method: as §1

[22] = tested on: wheat; experiment: Test C postemergence; type: in vivo, Triticum aestivum; conditions: 10 days, 0 to 100 scale (0 no effect, 100 complete control)
Summary of the method: as §1

[23] = tested on: galium; experiment: Test C postemergence; type: in vivo, Galium aparine; conditions: 10 days, 0 to 100 scale (0 no effect, 100 complete control)
Summary of the method: as §1

[24] = tested on: horseweed; experiment: Test C postemergence; type: in vivo, Erigeron canadensis; conditions: 10 days, 0 to 100 scale (0 no effect, 100 complete control)
Summary of the method: as §1

[25] = tested on: barnyardgrass; experiment: Test D flooded paddy test; type: in vivo, Echinochloa crus-galli; conditions: 250 g ai/ha, applied to paddy water, visual rating after 13 to 14 days, scale 0 to 100 (0 no effect, 100 complete control)
Summary of the method: (§2)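 Seedlings reached the 2-leaf stage, then pots were flooded to 3 cm over the soil surface. Compound was applied into the water, depth was maintained, and plants stayed in the greenhouse 13 to 14 days before visual scoring (0–100) relative to controls.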

[26] = tested on: ducksalad; experiment: Test D flooded paddy test; type: in vivo, Heteranthera limosa; conditions: 250 g ai/ha, applied to paddy water, visual rating after 13 to 14 days, scale 0 to 100 (0 no effect, 100 complete control)
Summary of the method: as §2

[27] = tested on: rice; experiment: Test D flooded paddy test; type: in vivo, Oryza sativa; conditions: 250 g ai/ha, applied to paddy water, visual rating after 13 to 14 days, scale 0 to 100 (0 no effect, 100 complete control)
Summary of the method: as §2

[28] = tested on: sedge, umbrella; experiment: Test D flooded paddy test; type: in vivo, Cyperus difformis; conditions: 250 g ai/ha, applied to paddy water, visual rating after 13 to 14 days, scale 0 to 100 (0 no effect, 100 complete control)
Summary of the method: as §2

SMILES: COc1ncn(-c2cccc(C(=O)N3C[C@H](C)Oc4c(C)cccc43)c2)n1 [Compound 307]
- Barnyardgrass plant response rating ([1]; 500 g ai/ha): 90
- Barnyardgrass plant response rating ([1]; Test C, 125 g ai/ha): 40
- Blackgrass plant response rating ([2]; 500 g ai/ha): 80
- Blackgrass plant response rating ([2]; Test C, 125 g ai/ha): 40
- Corn plant response rating ([3]; 500 g ai/ha): 10
- Corn plant response rating ([3]; Test C, 125 g ai/ha): 0
- Foxtail, Green plant response rating ([4]; 500 g ai/ha): 100
- Foxtail, Green plant response rating ([4]; Test C, 125 g ai/ha): 100
- Kochia plant response rating ([5]; 500 g ai/ha): 80
- Kochia plant response rating ([5]; Test C, 125 g ai/ha): 40
- Oat, Wild plant response rating ([6]; 500 g ai/ha): 90
- Oat, Wild plant response rating ([6]; Test C, 125 g ai/ha): 50
- Pigweed, Palmer plant response rating ([7]; 500 g ai/ha): 100
- Pigweed, Palmer plant response rating ([7]; Test C, 125 g ai/ha): 60
- Ragweed plant response rating ([8]; 500 g ai/ha): 50
- Ragweed plant response rating ([8]; Test C, 125 g ai/ha): 0
- Ryegrass, Italian plant response rating ([9]; 500 g ai/ha): 80
- Ryegrass, Italian plant response rating ([9]; Test C, 125 g ai/ha): 80
- Soybean plant response rating ([10]; 500 g ai/ha): 100
- Soybean plant response rating ([10]; Test C, 125 g ai/ha): 20
- Wheat plant response rating ([11]; 500 g ai/ha): 90
- Wheat plant response rating ([11]; Test C, 125 g ai/ha): 10
- Plant response rating, Barnyardgrass ([12]; 500 g ai/ha, postemergence): 80
- Plant response rating, Barnyardgrass ([12]; Postemergence, 125 g ai/ha): 50
- Plant response rating, Blackgrass ([13]; 500 g ai/ha, postemergence): 90
- Plant response rating, Blackgrass ([13]; Postemergence, 125 g ai/ha): 70
- Plant response rating, Corn ([14]; 500 g ai/ha, postemergence): 50
- Plant response rating, Corn ([14]; Postemergence, 125 g ai/ha): 10
- Plant response rating, Foxtail, Green ([15]; 500 g ai/ha, postemergence): 90
- Plant response rating, Foxtail, Green ([15]; Postemergence, 125 g ai/ha): 60
- Plant response rating, Kochia ([16]; 500 g ai/ha, postemergence): 70
- Plant response rating, Kochia ([16]; Postemergence, 125 g ai/ha): 40
- Plant response rating, Oat, Wild ([17]; 500 g ai/ha, postemergence): 80
- Plant response rating, Oat, Wild ([17]; Postemergence, 125 g ai/ha): 20
- Plant response rating, Pigweed, Palmer ([18]; 500 g ai/ha, postemergence): 50
- Plant response rating, Pigweed, Palmer ([18]; Postemergence, 125 g ai/ha): 20
- Plant response rating, Ragweed ([19]; 500 g ai/ha, postemergence): 50
- Plant response rating, Ragweed ([19]; Postemergence, 125 g ai/ha): 0
- Plant response rating, Ryegrass, Italian ([20]; 500 g ai/ha, postemergence): 70
- Plant response rating, Ryegrass, Italian ([20]; Postemergence, 125 g ai/ha): 60
- Plant response rating, Soybean ([21]; 500 g ai/ha, postemergence): 100
- Plant response rating, Soybean ([21]; Postemergence, 125 g ai/ha): 100
- Plant response rating, Wheat ([22]; 500 g ai/ha, postemergence): 80
- Plant response rating, Wheat ([22]; Postemergence, 125 g ai/ha): 10
- Plant response rating, Galium ([23]; 500 g ai/ha, postemergence): 90
- Plant response rating, Galium ([23]; Postemergence, 125 g ai/ha): 80
- Plant response rating, Horseweed ([24]; 500 g ai/ha, postemergence): 30
- Plant response rating, Horseweed ([24]; Postemergence, 125 g ai/ha): 20
- Plant response rating, Barnyardgrass (Flood) [25]: 0
- Plant response rating, Ducksalad (Flood) [26]: 0
- Plant response rating, Rice (Flood) [27]: 0
- Plant response rating, Sedge, Umbrella (Flood) [28]: 0
